One block for each compound: values may come before it.
Tested on: 857933-349-R-J2-PDC complex spheroids, viability
Assay: Anticancer human tumor 857933-349-R-J2-PDC patient-derived colon adenocarcinoma cell line growth inhibition [GQUAD]
Settings: for IC50: curve of first compound; for viability, T/C: stronger effect = lower value
Method in brief: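 Multi-cell-type spheroids of tumor cells with HUVEC and mesenchymal stem cells, treated with drug combinations. Concentrations descend in half-log steps from near clinical Cmax, or from 10 microM where Cmax is unknown; viability read-out.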

[1] = second compound 0.0316 µM, first compound 0.0316 µM
[2] = second compound 0.0316 µM, first compound 0.1 µM
[3] = second compound 0.0316 µM, first compound 0.316 µM
[4] = second compound 0.0316 µM, first compound 1 µM
[5] = second compound 0.0316 µM, first compound 3.16 µM
[6] = second compound 0.0316 µM, first compound 10 µM
[7] = second compound 0.1 µM, first compound 0.0316 µM
[8] = second compound 0.1 µM, first compound 0.1 µM
[9] = second compound 0.1 µM, first compound 0.316 µM
[10] = second compound 0.1 µM, first compound 1 µM
[11] = second compound 0.1 µM, first compound 3.16 µM
[12] = second compound 0.1 µM, first compound 10 µM
[13] = second compound 0.316 µM, first compound 0.0316 µM
[14] = second compound 0.316 µM, first compound 0.1 µM
[15] = second compound 0.316 µM, first compound 0.316 µM
[16] = second compound 0.316 µM, first compound 1 µM
[17] = second compound 0.316 µM, first compound 3.16 µM
[18] = second compound 0.316 µM, first compound 10 µM
[19] = second compound 1 µM, first compound 0.0316 µM
[20] = second compound 1 µM, first compound 0.1 µM
[21] = second compound 1 µM, first compound 0.316 µM
[22] = second compound 1 µM, first compound 1 µM
[23] = second compound 1 µM, first compound 3.16 µM
[24] = second compound 1 µM, first compound 10 µM
[25] = second compound 3.16 µM, first compound 0.0316 µM
[26] = second compound 3.16 µM, first compound 0.1 µM
[27] = second compound 3.16 µM, first compound 0.316 µM
[28] = second compound 3.16 µM, first compound 1 µM
[29] = second compound 3.16 µM, first compound 3.16 µM
[30] = second compound 3.16 µM, first compound 10 µM
[31] = second compound 10 µM, first compound 0.0316 µM
[32] = second compound 10 µM, first compound 0.1 µM
[33] = second compound 10 µM, first compound 0.316 µM
[34] = second compound 10 µM, first compound 1 µM
[35] = second compound 10 µM, first compound 3.16 µM
[36] = second compound 10 µM, first compound 10 µM
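Further: spheroids exposed to compounds for one week before readout.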
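Wherever viability, T/C is given: percent viability relative to vehicle DMSO wells taken as 100%.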

IC50 (second compound 0.0316 µM): 712 nM | IC50 (second compound 0.1 µM): 179 nM | IC50 (second compound 0.316 µM): < 31.6 nM | IC50 (second compound 1 µM): < 31.6 nM | IC50 (second compound 3.16 µM): < 31.6 nM | IC50 (second compound 10 µM): < 31.6 nM
Compound: COc1ccc([C@@H](O)c2cc(-c3ncnc4cc(N5CCOCC5)ccc34)c(F)cc2Cl)nn1 + Cc1cnc(CNC(=O)c2c(=O)c3ccc(N4CCCN(C)CC4)nc3n3c2sc2ccccc23)cn1
viability, T/C [1]: 95.5% | viability, T/C [2]: 81.5% | viability, T/C [3]: 58% | viability, T/C [4]: 47.1% | viability, T/C [5]: 43% | viability, T/C [6]: 38% | viability, T/C [7]: 59.5% | viability, T/C [8]: 59.5% | viability, T/C [9]: 40.9% | viability, T/C [10]: 25.9% | viability, T/C [11]: 23.2% | viability, T/C [12]: 26.5% | viability, T/C [13]: 26.5% | viability, T/C [14]: 26.6% | viability, T/C [15]: 14.2% | viability, T/C [16]: 3.09% | viability, T/C [17]: 2.64% | viability, T/C [18]: 2.37% | viability, T/C [19]: 4.74% | viability, T/C [20]: 3.32% | viability, T/C [21]: 3.45% | viability, T/C [22]: 2.29% | viability, T/C [23]: 1.33% | viability, T/C [24]: 1.08% | viability, T/C [25]: 2.27% | viability, T/C [26]: 2.54% | viability, T/C [27]: 2.01% | viability, T/C [28]: 1.72% | viability, T/C [29]: 1.23% | viability, T/C [30]: 0.95% | viability, T/C [31]: 1.48% | viability, T/C [32]: 2.1% | viability, T/C [33]: 0.71% | viability, T/C [34]: 1.8% | viability, T/C [35]: 0.73% | viability, T/C [36]: 0.29%

Compound: Cc1cccc(N(C)C(=O)C2C(O)CCN2c2nc(C)cc(C(F)(F)F)c2C#N)c1 (stereo not drawn) + Cc1[nH]c2ccc(F)cc2c1-c1nc2c3cccnc3c3ncccc3c2[nH]1
IC50 (second compound 0.0316 µM): > 10000 nM | IC50 (second compound 0.1 µM): > 10000 nM | IC50 (second compound 0.316 µM): > 10000 nM | IC50 (second compound 1 µM): > 10000 nM | IC50 (second compound 3.16 µM): > 10000 nM | IC50 (second compound 10 µM): > 10000 nM | viability, T/C [1]: 101% | viability, T/C [2]: 99.1% | viability, T/C [3]: 91.6% | viability, T/C [4]: 88.2% | viability, T/C [5]: 98.3% | viability, T/C [6]: 92% | viability, T/C [7]: 95.2% | viability, T/C [8]: 98.4% | viability, T/C [9]: 98.8% | viability, T/C [10]: 97.9% | viability, T/C [11]: 102% | viability, T/C [12]: 96.7% | viability, T/C [13]: 101% | viability, T/C [14]: 104% | viability, T/C [15]: 106% | viability, T/C [16]: 102% | viability, T/C [17]: 101% | viability, T/C [18]: 110% | viability, T/C [19]: 94.9% | viability, T/C [20]: 101% | viability, T/C [21]: 102% | viability, T/C [22]: 103% | viability, T/C [23]: 110% | viability, T/C [24]: 94.7% | viability, T/C [25]: 94.6% | viability, T/C [26]: 97.4% | viability, T/C [27]: 111% | viability, T/C [28]: 100% | viability, T/C [29]: 98.5% | viability, T/C [30]: 99.7% | viability, T/C [31]: 96.1% | viability, T/C [32]: 101% | viability, T/C [33]: 93% | viability, T/C [34]: 95% | viability, T/C [35]: 97.5% | viability, T/C [36]: 88.3%

Compound: CCCS(=O)(=O)Nc1ccc(F)c(C(=O)c2c[nH]c3ncc(-c4ccc(Cl)cc4)cc23)c1F + CN(C)c1ccc(Nc2c3ccc(NC(=O)CCN4CCCC4)cc3nc3cc(NC(=O)CCN4CCCC4)ccc23)cc1
IC50 (second compound 0.0316 µM): 5650 nM | IC50 (second compound 0.1 µM): 5530 nM | IC50 (second compound 0.316 µM): 5650 nM | IC50 (second compound 1 µM): 5450 nM | IC50 (second compound 3.16 µM): 5030 nM | IC50 (second compound 10 µM): 3180 nM | viability, T/C [1]: 108% | viability, T/C [2]: 101% | viability, T/C [3]: 102% | viability, T/C [4]: 96.8% | viability, T/C [5]: 95.5% | viability, T/C [6]: 5.26% | viability, T/C [7]: 110% | viability, T/C [8]: 106% | viability, T/C [9]: 96.4% | viability, T/C [10]: 106% | viability, T/C [11]: 92.5% | viability, T/C [12]: 5.04% | viability, T/C [13]: 104% | viability, T/C [14]: 101% | viability, T/C [15]: 96.5% | viability, T/C [16]: 96.7% | viability, T/C [17]: 95.3% | viability, T/C [18]: 5.41% | viability, T/C [19]: 101% | viability, T/C [20]: 89.6% | viability, T/C [21]: 96.7% | viability, T/C [22]: 93.1% | viability, T/C [23]: 89.9% | viability, T/C [24]: 5.58% | viability, T/C [25]: 83.5% | viability, T/C [26]: 73.5% | viability, T/C [27]: 81.2% | viability, T/C [28]: 75.8% | viability, T/C [29]: 79.7% | viability, T/C [30]: 7.65% | viability, T/C [31]: 63.1% | viability, T/C [32]: 66.5% | viability, T/C [33]: 56.8% | viability, T/C [34]: 59.1% | viability, T/C [35]: 51% | viability, T/C [36]: 12.3%

Compound: COc1cccc2c1C(=O)c1c(O)c3c(c(O)c1C2=O)CC(O)(C(=O)CO)CC3OC1CC(N)C(O)C(C)O1 (stereo not drawn) + Cc1[nH]c2ccc(F)cc2c1-c1nc2c3cccnc3c3ncccc3c2[nH]1
IC50 (second compound 0.0316 µM): 444 nM | IC50 (second compound 0.1 µM): 721 nM | IC50 (second compound 0.316 µM): 965 nM | IC50 (second compound 1 µM): 839 nM | IC50 (second compound 3.16 µM): 572 nM | IC50 (second compound 10 µM): 505 nM | viability, T/C [1]: 90.5% | viability, T/C [2]: 66% | viability, T/C [3]: 59.2% | viability, T/C [4]: 41.6% | viability, T/C [5]: 5.07% | viability, T/C [6]: 0.26% | viability, T/C [7]: 81.5% | viability, T/C [8]: 63.5% | viability, T/C [9]: 59.7% | viability, T/C [10]: 49.2% | viability, T/C [11]: 7.76% | viability, T/C [12]: 0.17% | viability, T/C [13]: 74.2% | viability, T/C [14]: 66.8% | viability, T/C [15]: 56.4% | viability, T/C [16]: 51% | viability, T/C [17]: 5.84% | viability, T/C [18]: 0.2% | viability, T/C [19]: 79.9% | viability, T/C [20]: 62.5% | viability, T/C [21]: 61.9% | viability, T/C [22]: 48.6% | viability, T/C [23]: 5.97% | viability, T/C [24]: 0.21% | viability, T/C [25]: 79.4% | viability, T/C [26]: 65.7% | viability, T/C [27]: 59.4% | viability, T/C [28]: 43.6% | viability, T/C [29]: 6.19% | viability, T/C [30]: 0.26% | viability, T/C [31]: 93% | viability, T/C [32]: 74.5% | viability, T/C [33]: 58.5% | viability, T/C [34]: 43.7% | viability, T/C [35]: 5.74% | viability, T/C [36]: 0.29%
